Assay results: publication PMC9468151, “Identification of a binding site on soluble RANKL that can be targeted to inhibit soluble RANK-RANKL interactions and treat osteoporosis” (Nature Communications, 2022)
“And” between values parts separate entries of the source, which are not always exact repeats. Equal entries are not always repeated.

Experiments:
[1] = tested on: RANKL-induced resorption pits; experiment: Hydroxyapatite resorption assay; format: cell-based, mouse; conditions: in words
Protocol: BMMs (1 × 10^5 cells/well) were cultured onto 6-well collagen-coated plates and stimulated with 100 ng/mL sRANKL and 10 ng/mL M-CSF for 3 days to generate early stage of osteoclasts began differentiation. Then early-stage osteoclasts were gently harvested using cell dissociation solution, and seeded into OsteoAssay Surface (hydroxyapatite-coated) 24-well plates. Early-stage osteoclasts were continue incubated in a medium containing sRANKL and M-CSF with or without treatment. After 48 h, wells were bleached to remove cells, followed by image acquisition for the measurement of resorbed areas using a Leica microscope. The percentage of surface resorbed was analyzed using ImageJ software.

RAW264.7 cells = experiment: In vitro cytotoxicity assay (MTT); format: cell-based, mouse
Outline: (§1)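 Log-phase cells were seeded at 6 × 10^3 per well and incubated 24 h, with viability read by MTT. Growth inhibition (%) was calculated from OD relative to vehicle wells. CC50 came from nonlinear regression curve fitting.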

[2] = In vitro cytotoxicity assay (MTT); format: cell-based, mouse; conditions: mouse, RAW264.7 cells
Outline: as §1

OVX rats [3] = experiment: Osteoporosis biomarkers determination in rat serum (ELISA); format: in vivo; design: OCN / RANKL / PINP / CTX-I / Glu-OCN: unit not given here; conditions: serum; OVX + compound; individual animals
Protocol: Change of rat osteoporosis biomarkers after treating with S3-15 were determined by enzyme-linked immunosorbent assay (ELISA). […] serum biomarkers including CTX-I (C-terminal telopeptide of type I collagen), OC(Osteocalcin), PINP (Procollagen I N-Terminal propeptide), and RANKL(Receptor activator of nuclear factor-κB ligand). Rat blood was collected from aortaventralis after anesthesia, and centrifuged in 14000 × g at 4 °C to get the serum samples. The protein contents of those biomarkers in serum samples were detected according to manufacturer’s instruction (CTX-I and OC, Systems IDS, UK; RANKL, R&D Systems, USA; PINP, USCN Life Science, Inc., China.).

C3H10T1/2 = C3H10T1/2 proliferation and osteoblastic mineralization; format: cell-based, mouse; conditions: C3H10T1/2 or human primary osteoblasts, osteogenic differentiation medium
Protocol: Supplementary Fig.5. In Vitro Activity Evaluation and Signal Pathway Study of compound S3-15. a Western blot of PI3K and AKT phosphorylation in RAW264.7 cells treating with or without S315 and sRANKL at different point-in-time. b EC50 curve and representative OC microphotographs of mature osteoclasts apoptosis assay with S3-15. n=3 biological replicates for each concentration. EC50 values were calculated by GraphPad Prism 8 software. c EC50 curve and representative OC microphotographs of mature osteoclasts apoptosis assay with S3, S3-03 and S3-05. n=3 biological replicates for each concentration. EC50 values were calculated by GraphPad Prism […]
pits in dose-dependent manner (mouse BMMs). e Precursor osteoblasts C3H10T12 proliferation-promoting of S3, S3-05 and S3-15. f Osteoblastic mineralization after treatment with S3, S3-05 and S3-15. C3H10T12 cells were cultured in osteoblast induction differentiation medium with or without treatment for 14 days and determinate of calcium deposition in differentiated osteoblasts by Alizarin red staining. Error bars represent ± s.d. n=3. Statistical difference was determined by unpaired two-tailed Student’s t test. Significant difference p value is < 0.05. Scale […]
(1 picture or pasted object on this page, not shown here)

OVX rats [4] = experiment: Osteoporosis therapeutic study in OVX rats (micro-CT); format: in vivo, rat; design: Tb.N: unit not given beside the values
Protocol: Female SD rats or C57BL/6 mice were cared until they grown up to 6 months old or 10 weeks old, respectively. Then we subjected them to either bilateral ovariectomy or sham operation after anesthesia with 10% chloral hydrate (0.3 mL/100 g). Then all the rats or mice were intramuscular injected of penicillin to prevent infection in the first week of surgery. For rat experiments, after 12 weeks of operation, 3 rats from sham-operated or ovariectomized groups were random selected to determine bone mass by micro-CT imaging biopsy to verify successful produced bone loss(data unshown). Then the OVX rats were individually administrated with S3-15, S3, and S3-05 orally with (10 mg/kg/day) for another 12 weeks. For mouse experiments, after 4 weeks of surgery, the OVX mice were treated with 10 mg/kg/day S3-15 for another 4 weeks.
The weight of rats or mice were recorded every week in the treatment period. After treatment, the rats were harvested, the serum, heart, liver, spleen, lung, kidney, thymus, and femurs were all collected and subjected to subsequent analysis. The right femurs of rats or mice were cleaned excess soft tissue, fixed in 10% formalin, and processed them for microcomputed tomography (micro-CT) analysis. Left mice femurs were collected and excarnate for biomechanical strength testing. Mice peripheral blood were as well as collected for flow cytometry analyzing.
The right femurs of rats or mice were further analyzed with micro-CT on Inveon PET/CT (Siemens, Germany). We used micro-CT to scan the femur from the femoral head to the femoral condyle, using 19 μm resolution, 80 kV 500uA, 360 projection, 3000-6000 image threshold, full rotation cone beam. Three-dimensional reconstruction and histomorphometric analyses of trabecular bone were conducted with the IAW (Inveon analysis workstation) analysis software. The trabecular extended 1 mm (rat) or 0.5 mm (mice) proximally to the end of the distal growth plate over 2 mm (rats) or 1 mm (mice) toward the diaphysis was selected as the region of interest (ROI) for the analysis. The resulting two-dimensional images of trabecular bone in relative cross sections were shown in grayscale. Trabecular bone parameters were measured including bone volume/tissue volume (BV/TV), bone surface area/bone volume (BS/BV), trabecular number (Tb.N), trabecular thickness (Tb.Th), trabecular separation(Tb.Sp) and trabecular pattern factor(Tb.P.F).

[5] = OVX + compound, individual animals

Compound: CCOC(=O)c1sc(NC(=O)/C(=N/Nc2ccc(O)cc2C(=O)O)C(C)=O)nc1C [S3-05]
- bone resorption / RANKL-induced resorption pits [1]: suppresses RANKL-induced resorption
- cell viability relative to 0 μM (fig. S5e) (RAW264.7 cells; conc. 0.08 μM): 112.115 and 113.045
- cell viability relative to 0 μM (fig. S5e) (RAW264.7 cells; conc. 0.28 μM): 104.323 and 119.674
- cell viability relative to 0 μM (fig. S5e) (RAW264.7 cells; conc. 0.92 μM): 131.188 and 122
- cell viability relative to 0 μM (fig. S5e) (RAW264.7 cells; conc. 3.03 μM): 125.024 and 127.118
- cell viability relative to 0 μM (fig. S5e) (RAW264.7 cells; conc. 10 μM): 125.722 and 115.72
- viability at 24 h, 0.08 μM ([2]; conc. 0.08 μM, read-out: cell viability relative to 0 μM (fig. S5e)): 98.4%
- viability at 24 h, 0.28 μM ([2]; conc. 0.28 μM, read-out: cell viability relative to 0 μM (fig. S5e)): 118%
- viability at 24 h, 0.92 μM ([2]; conc. 0.92 μM, read-out: cell viability relative to 0 μM (fig. S5e)): 132%
- viability at 24 h, 3.03 μM ([2]; conc. 3.03 μM, read-out: cell viability relative to 0 μM (fig. S5e)): 127%
- viability at 24 h, 10 μM ([2]; conc. 10 μM, read-out: cell viability relative to 0 μM (fig. S5e)): 113%
- CC50 at 24 h ([2]; RAW264.7, MTT): 93.9 µM
- CTX-I (OVX rats [3]): 12.9391 and 9.961 and 23.5145 and 16.5322 and 12.0463 and 14.1264 and 13.0825 and 21.4762
- Glu-OCN (OVX rats [3]): 23.1879 and 10.5179 and 18.8663 and 21.4957 and 14.7477 and 20.9157 and 18.2902 and 26.5413
- OCN (OVX rats [3]): 109.522 and 50.9168 and 121.686 and 154.593 and 50.4316 and 135.849 and 58.7802 and 162.173
- PINP (OVX rats [3]): 4703.95 and 10142.4 and 4202.52 and 5828.23 and 7980.56 and 6497.2 and 3099 and 3185.01
- RANKL (OVX rats [3]): 183 and 172.091 and 217.546 and 201.182 and 228.454 and 173.909 and 175.727 and 170.273
- cell proliferation and mineralization (C3H10T1/2): increase cell proliferation and mineralization
- BV/TV (OVX rats [4]; [5]): 0.3016 and 0.3941 and 0.3094 and 0.3401 and 0.3769 and 0.3486 and 0.3669 and 0.2495
- Tb.N (OVX rats [4]; [5]): 0.07827 and 0.1011 and 0.07596 and 0.08201 and 0.08333 and 0.08879 and 0.08221 and 0.07582
- Tb.Sp (OVX rats [4]; [5]): 0.1812 and 0.1554 and 0.1695 and 0.1592 and 0.1377 and 0.1659 and 0.1419 and 0.2281
- Tb.Th (OVX rats [4]; [5]): 3.854 and 3.899 and 4.073 and 4.146 and 4.523 and 3.9259 and 4.463 and 3.291
- BV/TV of OVX rats (OVX rats [4]; oral 10 mg/kg/day, 12 weeks, in words): increased
